Source: ChEMBL document CHEMBL5120776, “Asymmetric Total Synthesis of Griseofamine B and Its Three Stereoisomers” (2022)

Legend:
Format in all cases: functional
[1] = tested on: Staphylococcus epidermidis; test: Antibacterial activity against Staphylococcus epidermidis ATCC 12228 assessed as inhibition of bacterial growth incubated for 18 hrs by two-fold dilution assay
Staphylococcus aureus [2] = test: Antibacterial activity against methicillin-resistant Staphylococcus aureus […] assessed as inhibition of bacterial growth incubated for 18 hrs by two-fold dilution assay
Escherichia coli = test: Antibacterial activity against Escherichia coli ATCC 25922 assessed as inhibition of bacterial growth incubated for 18 hrs by two-fold dilution assay
Enterococcus faecium [3] = test: Antibacterial activity against Enterococcus faecium clinical isolate 16-5 assessed as inhibition of bacterial growth incubated for 18 hrs by two-fold dilution assay
[4] = tested on: Staphylococcus epidermidis; test: Antibacterial activity against methicillin-resistant Staphylococcus epidermidis clinical isolate 16-5 assessed as inhibition of bacterial growth incubated for 18 hrs by two-fold dilution assay
Enterococcus faecalis [5] = test: Antibacterial activity against Enterococcus faecalis ATCC 29212 assessed as inhibition of bacterial growth incubated for 18 hrs by two-fold dilution assay
Staphylococcus aureus [6] = test: Antibacterial activity against Staphylococcus aureus ATCC 29213 assessed as inhibition of bacterial growth incubated for 18 hrs by two-fold dilution assay
Staphylococcus aureus [7] = test: Antibacterial activity against Staphylococcus aureus […] assessed as inhibition of bacterial growth incubated for 18 hrs by two-fold dilution assay
Enterococcus faecium [8] = test: Antibacterial activity against vancomycin-resistant Enterococcus faecium ATCC 700221 assessed as inhibition of bacterial growth incubated for 18 hrs by two-fold dilution assay
Staphylococcus aureus [9] = test: Antibacterial activity against methicillin-resistant Staphylococcus aureus ATCC 33591 assessed as inhibition of bacterial growth incubated for 18 hrs by two-fold dilution assay
Enterococcus faecalis [10] = test: Antibacterial activity against vancomycin-resistant Enterococcus faecalis ATCC 51299 assessed as inhibition of bacterial growth incubated for 18 hrs by two-fold dilution assay

Measured: MIC

CC(C)=C[C@H]1c2cccc3[nH]cc(c23)C[C@H]2C(=O)/C(=C(\C)O)C(=O)N21
≥ 64 µg/mL: all assays above

CC(C)=C[C@@H]1c2cccc3[nH]cc(c23)C[C@@H]2C(=O)/C(=C(\C)O)C(=O)N21
≥ 64 µg/mL: all assays above

CC(C)=C[C@H]1c2cccc3[nH]cc(c23)C[C@@H]2C(=O)/C(=C(\C)O)C(=O)N21
≥ 64 µg/mL: all assays above

CC(C)=C[C@@H]1c2cccc3[nH]cc(c23)C[C@H]2C(=O)/C(=C(\C)O)C(=O)N12
≥ 64 µg/mL: all assays above
